Counter-ions that a name gives are not always drawn.
These compounds were tested on MTT (mouse pheochromocytoma) (assay: IC50 of cell viability (ATP content)). Conditions: (24 or 48 h).
Outline: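 Library compounds in DMSO (23 nl by pintool, 8 concentrations, final 0.5 nM to 46 µM) were applied for 24 or 48 hrs to MTT mouse pheochromocytoma cells that had been cultured overnight at 37°C, 5% CO2 in white 1536-well plates. Cell viability was measured by CellTiter-Glo ATP luminescence, read after 15 minutes, with positive-control wells set at 100% and DMSO wells at 0%. A four-parameter logistic fit of the normalised signals yielded the IC50.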

SMILES	IC50 of cell viability [µM]
COc1cc2c(cc1OC)CC(=O)N(CCCN(C)C[C@H]1Cc3cc(OC)c(OC)cc31)CC2 [IVABRADINE HYDROCHLORIDE]	> 46
Nc1ccc([S+](=O)([O-])Nc2ccccc2)cc1 [Sulfabenz]	> 46
CC1CCN(CCCC(=O)c2ccc(F)cc2)CC1 [MELPERONUM]	> 46
CN1CCC(OC(c2ccccc2)c2ccccc2)CC1 [Diphenylpyraline hydrochloride]	> 46
Nc1nc2ccc([N+](=O)[O-])cc2s1 [2-Amino-6-nitrobenzothiazole]	> 46
CCCCCCCCCCCCCCCC(=O)O[C@@H]1[C@@H](O)[C@@H](O)C(C(NC(=O)[C@H]2C[C@@H](CCC)CN2C)C(C)Cl)O[C@@H]1SC (some centres not stated) [Clindamycin palmitate]	> 46
Nc1nc(Cl)nc2c1ncn2C1CC(O)C(CO)O1 (configuration not stated)	> 46
O=C1[O][Pt]2([NH]C3CCCCC3[NH]2)[O]C1=O (configuration not stated) [OXALIPLATIN]	> 46
CO[C@H]1[C@@H](O[C@@H]2O[C@@H](C)[C@@H](O[C@H]3C[C@](C)(O)[C@H](OC(=O)CC(C)C)[C@H](C)O3)[C@@H](N(C)C)[C@H]2O)[C@H](CC=O)C[C@@H](C)[C@@H](O)/C=C\C=C/C[C@@H](C)OC(=O)C[C@H]1OC(C)=O [Josamycin]	> 46
CNC[C@H](O)c1ccc(OC(=O)C(C)(C)C)c(OC(=O)C(C)(C)C)c1 [Dipivefrin hydrochloride]	> 46
CCc1c(C)[nH]c2c1C(=O)[C@H](CN1CCOCC1)CC2 [Molindone hydrochloride]	> 46
CC(C)NC[C@@H](O)COc1ccc(CC(N)=O)cc1 [R-(+)-ATENOLOL]	> 46
CC(=O)OO [PERACETIC ACID]	> 46
O=C(c1ccc(OCCN2CCCCC2)cc1)c1c(-c2ccc(O)cc2)sc2cc(O)ccc12 [Raloxifene hydrochloride]	> 46
COc1ccc(OC)c(CC(C)N)c1 (single isomer, unassigned; (-)) [(-)-2,5-Dimethoxyamphetamine]	> 46
C=CCN(C1=NCCN1)c1c(Cl)cccc1Cl [Alinidine]	> 46
C[C@H](O)CN(C)C	> 46

SMILES	IC50 of cell viability [µM]
C#CC(C)(O)CC (configuration not stated) [Methylpentynolum]	> 46
CC(Cc1ccccc1)NCCn1cnc2c1c(=O)n(C)c(=O)n2C (configuration not stated) [Fenethylline]	> 46
CCCCNC(C)(C)[PH](=O)O [Butafosfan]	> 46
COc1ccc(O)cc1 [MEQUINOL]	> 46
c1ccc(CN2CCNCC2)cc1 [1-Benzylpiperazine]	> 46
CCOC(=O)C1(c2ccccc2)CCN(CCC(C#N)(c2ccccc2)c2ccccc2)CC1 [Diphenoxylate]	> 46
O=C1c2ccccc2CN2C(=O)c3ccccc3CN12 [Diftalone]	> 46
FC(F)(F)c1ccccc1-n1ccnc1 [TRIM]	> 46
CCc1cccc(CC)c1NC(=O)CN(CC(=O)O)CC(=O)O [Etifenin]	> 46
O=[P@@]1(NCCCl)OCCCN1CCCl [Ifosfamide]	> 46
CCCCCCCCCCCCCCCCC(C(=O)O)C(O)(CC(=O)O)C(=O)O (configuration not stated) [AGARICINUM]	> 46
CCC(=O)OCC(=O)[C@@]1(OC(=O)CC)[C@@H](C)C[C@H]2[C@@H]3CCC4=CC(=O)C=C[C@]4(C)[C@@]3(F)[C@@H](O)C[C@@]21C [dexamethasone dipropionate]	> 46
Cc1cc(Nc2ccccc2C(=O)O)ccc1Cl [Benzoic acid, 2-[(4-chloro-3-methylphenyl)amino]-]	> 46
CCCCCCCCCC(=O)O[C@H]1CC[C@H]2[C@@H]3CCC4=CC(=O)CC[C@]4(C)[C@H]3CC[C@]12C [TESTOSTERONE DECANOATE]	> 46
COC1CC(O[C@H]2/C(C)=C/CC3CC(C[C@]4(CCC(C)C(C5CCCCC5)O4)O3)OC(=O)[C@H]3C=C(C)/C(=N/O)C4OC/C(=C\C=C\[C@@H]2C)[C@@]43O)OC(C)C1O (some centres not stated) [SELAMECTIN]	> 46
CC(C)CC(CN)CC(=O)O (configuration not stated) [PREGABALIN]	> 46
O=C(O)CCCCC(=O)O [Adipic acid]	> 46

Continued, values first:

IC50 of cell viability [µM]	SMILES
> 46	CC(Cc1ccccc1)(NC(=O)CN)c1ccccc1 (configuration not stated) [Remacemide hydrochloride]
> 46	O=C([O-])C1=C(CSc2nnnn2CS(=O)(=O)[O-])CS[C@@H]2[C@H](NC(=O)[C@H](O)c3ccccc3)C(=O)N12 [CEFONICID SODIUM]
> 46	[H]C1(CN)CC[C@@]([H])(CC1)C(=O)OC2=CC=C(CCC(O)=O)C=C2 (configuration not stated) [Cetraxate hydrochloride]
> 46	CC1CCCCN1CCCOC(=O)c1ccccc1 (configuration not stated) [PIPEROCAINE HYDROCHLORIDE]
> 46	N=C(N)NCCC[C@H](N)C(=O)O [L-Arginine]
> 46	CCNC(=O)NCCCOc1cccc(CN2CCCCC2)c1 [DALCOTIDINE]
> 46	Cc1c(C)n(CCN(C)C)c2ccc(C(=O)OCCN(C)C)cc12 [AMINDOCATUM]
> 46	O=C(Nc1ncc([N+](=O)[O-])s1)c1cccs1 [Tenonitrozol]
> 46	C[C@H](O)Cn1cnc2c1c(=O)n(C)c(=O)n2C [Proxyphylline]
> 46	CCOC(=O)Cn1cccc1-c1nc(-c2ccc(OC)cc2)c(-c2ccc(OC)cc2)s1 [PAMICOGREL]
> 46	CC(CSC(=O)c1ccccc1)C(=O)N1CC(Sc2ccccc2)CC1C(=O)[O-] (configuration not stated) [ZOFENOPRIL Calcium Salt]
> 46	C=CCOc1ccc(CC(=O)O)cc1Cl [Alclofenac]
> 46	CC(COc1ccccc1)N[NH3+] (configuration not stated) [Phenoxypropazine]
> 46	CC(C)(C)NC[C@H](O)COc1cccc2c1CCC(=O)N2 [Carteolol hydrochloride]
> 46	NC(N)=N[S+](=O)([O-])c1ccc(N)cc1 [Sulfaguanidine]
> 46	O=C(C1CCCCC1)N1CC(=O)N2CCc3ccccc3[C@@H]2C1 [Praziquantel]
> 46	CNC1C(O)C(OC2C(N)CC(N)C(OC3OC(CN)=CCC3N)C2O)OCC1(C)O (configuration not stated) [PENTISOMICINUM]
> 46	CC(C)(C)C(=O)OCOP(=O)(COCCn1cnc2c(N)ncnc21)OCOC(=O)C(C)(C)C [ADEFOVIR DIPIVOXIL]
> 46	CO[C@@]1(NC(=O)CSC[C@@H](N)C(=O)O)C(=O)N2C(C(=O)O)=C(CSc3nnnn3C)CS[C@@H]21 [CEFMINOX SODIUM]

IC50 of cell viability [µM]	SMILES
> 46	CCN(CC)C(=S)S [DITIOCARBUM NATRICUM]
> 46	CN(CC1=CC2=C(N\C(=N/C2=O)C)C=C1)C3=CC=C(S3)C(=O)N[C@@H](CCC(O)=O)C(O)=O [Raltitrexed]
> 46	CN(C/C=C\c1ccccc1)Cc1cccc2ccccc12 [Naftifine hydrochloride]
> 46	Cc1ncc([N+](=O)[O-])n1CC(C)O (configuration not stated) [SECNIDAZOLE]
> 46	Cc1cccc(Nc2ncccc2C(=O)O)c1C [ACIDUM NIXYLICUM]
> 46	O=C1CN2Cc3c(ccc(Cl)c3Cl)NC2=N1 [Anagrelide hydrochloride]
> 46	O=C(O)COCCN1CCN([C@@H](c2ccccc2)c2ccc(Cl)cc2)CC1 [Cetirizine dihydrochloride]
> 46	CC(=O)[C@]1(O)Cc2c(O)c3c(c(O)c2[C@@H](O[C@H]2C[C@H](N)[C@H](O)[C@H](C)O2)C1)C(=O)c1ccccc1C3=O [IDARUBICIN HYDROCHLORIDE]
> 46	CC1=C(C/C=C(\C)CCCC(C)CCCC(C)CCCC(C)C)C(=O)c2ccccc2C1=O (configuration not stated) [Phytonadione]
> 46	CC(=O)N(CC(O)CO)c1c(I)c(C(=O)NCCO)c(I)c(C(=O)NCC(O)CO)c1I (configuration not stated) [Ioxilan]
> 46	[O-]C(=O)C/1=C(CSC2C(NC(=O)CC3=CC=CS3)C(=O)N12)\C[N+]4=CC=CC=C4 (configuration not stated) [CEPHALORIDINE]
> 46	CCN(CC)[S+](=O)([O-])c1ccc(C(=O)O)cc1 [Etebenecid]
> 46	Cl.CN1CCCC(CC1)N2\N=C(CC3=CC=C(Cl)C=C3)/C4=CC=CC=C4C2=O (configuration not stated) [AZELASTINE HYDROCHLORIDE]
> 46	O=C(NCCCN1CCOCC1)c1ccc(Cl)cc1 [Eprobemida]
> 46	CC1(C)CCC(C)(C)c2cc(NC(=O)c3ccc(C(=O)O)cc3)ccc21 [TAMIBAROTENE]
> 46	CCN1CCC[C@H](OC(=O)C(c2ccccc2)c2ccccc2)C1 [Piperidolate hydrochloride]
> 46	N=C(N)NC(=O)Cc1c(Cl)cccc1Cl [GUANFACINE]
> 46	O=CCCCC=O [Glutaraldehyde (Glutaric dialdehyde)]
> 46	CCC(=O)[N-]S(=O)(=O)c1ccc(-c2c(-c3ccccc3)noc2C)cc1 [Parecoxib sodium]

Source: the supplement of paper PMC3974653
